# Values joined by “and” are separate entries in the source; they are usually repeats but may differ in a detail not shown here. Equal entries are not always repeated. Where two headings read alike, the source gives them in different places.
# What was measured:
# AT2 angiotensin receptor = target: T1, AT2 angiotensin receptor (Homo sapiens, UniProt P50052); details: cited from earlier work
# T1 sequence (P50052 1-363): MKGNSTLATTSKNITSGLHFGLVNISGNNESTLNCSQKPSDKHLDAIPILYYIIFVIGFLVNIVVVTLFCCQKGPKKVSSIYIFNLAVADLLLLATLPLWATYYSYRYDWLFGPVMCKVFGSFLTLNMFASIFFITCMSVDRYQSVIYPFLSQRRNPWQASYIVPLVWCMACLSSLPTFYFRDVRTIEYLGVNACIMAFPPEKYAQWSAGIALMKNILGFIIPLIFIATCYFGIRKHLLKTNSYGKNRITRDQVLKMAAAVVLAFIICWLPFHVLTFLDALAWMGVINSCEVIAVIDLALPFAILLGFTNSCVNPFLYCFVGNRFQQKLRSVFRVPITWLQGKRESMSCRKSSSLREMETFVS
# [1] = tested on: SK-LU-1 lung cancer cells; format: cell-based, human
# Protocol: Cells were grown to subconfluence in either 24-well cluster plates or 100 mm dishes and made quiescent by treatment for 48 h with serum-depleted growth media, prior to the experiments outlined below to measure cell growth (^3H-thymidine incorporation), cell signaling or apoptosis.
# Subsequently, the cell monolayer was washed with cold phosphate-buffered saline (PBS; 50 mM NaPO4, 120 mM NaCl, pH=7.2). The adherent cells were precipitated with cold 10% TCA (4° C. for 30 min) and dissolved in 0.2% SDS in 0.1 N NaOH.
# During an additional 4 h, cell monolayers were pulsed with ^3H-thymidine (0.25 μCi/well) and harvested.
# caspase-9 = experiment: Caspase-9 activity in A549 cell lysates; format: cell-based, human; details: A549 cells, 100 nM
# [2] = breast cancer patients, 30 minutes following subcutaneous injection, n=3, Rodgers 2005, cited from earlier work
# [3] = Plasma Ang-(1-7) level after intravenous infusion in mice; format: in vivo, mouse
# SK-LU-1 cells = experiment: Gene array hybridization (Human Cancer 1.2 Atlas cDNA Expression Array) in SK-LU-1 cells; format: cell-based; details: SK-LU-1, 1% serum, 100 nM
# Protocol: Cells were incubated for 2 or 8 h, and total RNA was isolated using the Atlas Pure Total RNA Labeling System (Clontech Laboratories, Inc). The RNA concentration was quantified by UV spectroscopy and any degradation was assessed by ethidium bromide staining intensity of 28S and 18S ribosomal RNA following agarose gel electrophoresis. RNA isolated from seven different cell passages was pooled prior to gene array analysis to account for individual variability in gene regulation. Radiolabeled cDNA, prepared from the pooled RNAs using the Atlas system, was incubated with DNase to degrade any residual DNA and then hybridized to the Human Cancer 1.2 Atlas cDNA Expression Array (Clonetech Laboratories, Inc). This gene array set contains 1,176 characterized human cDNAs on positively-charged nylon membranes.
# AT1 angiotensin receptor = details: cited from earlier work
# [4] = tested on: A549 human lung cancer cells; experiment: Hoechst 33342 staining for morphological features of apoptosis; format: cell-based; details: 100 nM, 4 h
# From the text: In one experiment, A549 human lung cancer cells were stained with Hoechst 33342 to visualize the morphological changes associated with apoptosis.
# cellular levels of cAMP = details: 1 μM, in the presence of 1 mM IBMX; n=3; U.S. Pat. No. 7,375,075; cited from earlier work
# [5] = tested on: ZR-75-1 breast cancer cell line tumors; experiment: ZR-75-1 breast cancer xenograft in athymic mice, intravenous infusion; format: in vivo, mouse; details: 24 μg/kg/hr infusion, 28 days; saline tumors doubled
# Protocol: (§1) Male or female athymic mice (15-20 g, 2-4 weeks of age, Charles River Laboratory, Wilmington, Mass.) were housed in cages with HEPA-filtered air (12-hour light/dark cycle) and ad libitum access to food and autoclaved water. All procedures complied with the policies of the Wake Forest University Animal Care and Use Committee. Mice were inoculated subcutaneously in the lower left flank with approximately 1.9×10^6 A549 lung cancer cells or ZR-75-1 breast cancer cells suspended in 200 μL of cold Matrigel (BD Biosciences, Bedford, Mass.). […] The mice were anesthetized by inhalation with 1.5% isoflurane. […] The minipumps also contained heparin (25 U/mL) to maintain patency of the catheter. On day 28 of the infusion, the animals were anesthetized with halothane and sacrificed by decapitation. Alternatively, the mice received daily subcutaneous injections of Ang-(1-7) in saline or saline alone.
# Tumor volumes were measured by caliper two times per week and calculated using the formula for a semiellipsoid. After 40 days, the mice had tumors approximately 175 mm^3 in size and were randomized for treatment.
# [6] = tested on: A549 human lung tumor xenografts; experiment: A549 human lung tumor xenograft in athymic mice, subcutaneous injection; format: in vivo, mouse
# Protocol: For reverse-transcriptase real-time PCR, RNA was isolated from cells or tissue, using the TRIzol reagent (GIBCO Invitrogen Corp., Carlsbad, Calif.), as directed by the manufacturer. The RNA concentration and integrity were assessed using an Agilent 2100 Bioanalyzer with an RNA 6000 nano LabChip (Agilent Technologies, Palo Alto, Calif.). Approximately 1 μg of total RNA was reverse transcribed using avian myeloblastosis virus reverse transcriptase (RT) in a 20 μL mixture containing deoxyribonucleotides, random hexamers and RNase inhibitor in RT buffer. Heating the RT reaction product at 95° C. terminated the reaction. For real-time polymerase chain reaction (PCR), 2 μL of the resultant cDNA was added to TaqMan Universal PCR Master Mix (Applied Biosystems, Foster City, Calif.) with a gene-specific primer/probe set (Applied Biosystems, Foster City, Calif.) and amplification was performed on an ABI 7000 Sequence Detection System. The mixtures were heated at 50° C. for 2 min, at 95° C. for 10 min followed by 40 cycles at 95° C. for 15 sec and 60° C. for 1 min. All reactions were performed in triplicate and 18S ribosomal RNA, amplified using the TaqMan Ribosomal RNA Control Kit (Applied Biosystems), served as an internal control. The results were quantified as Ct values, where Ct is defined as the threshold cycle of PCR at which amplified product is first detected, and expressed as the ratio of target/control (Relative Gene Expression).
# as §1
# The mice were injected daily, for 5 days, followed by a 2 day rest period, and the injections were continued for 7 cycles. Tumor size was measured every 3 days during the treatment period, using a caliper, and tumor volume was calculated using the formula for a semi-ellipsoid. The tumors continued to grow in the mice treated with saline (FIG. 33). […] It should be noted that a number of the saline control mice were sacrificed after 1 month due to excessive tumor size. Only a single control mouse remained in the study by the 40th day, while the Ang-(1-7)-treated mice thrived.
# [7] = 1000 μg/kg/day, radioimmunoassay
# [8] = subcutaneous 1000 μg/kg/day, versus saline
compound,measurement,setting,value
"CC[C@H](C)[C@H](NC(=O)[C@H](Cc1ccc(O)cc1)NC(=O)[C@@H](NC(=O)[C@H](CCCNC(=N)N)NC(=O)[C@@H](N)CC(=O)O)C(C)C)C(=O)N[C@@H](Cc1c[nH]cn1)C(=O)N1CCC[C@H]1C(=O)O [Ang-(1-7), Asp-Arg-Val-Tyr-Ile-His-Pro]",IC50 at the AT2 angiotensin receptor,"AT2 angiotensin receptor; Tallant et al., 1999",micromolar range
same,competition at the AT2 receptor,AT2 angiotensin receptor; literature,poor competitor
same,^3H-thymidine incorporation over time of treatment,"[1]; SK-LU-1, 1% FBS, daily addition of 100 nM",progressively reduced
same,effect on serum-stimulated ^3H-thymidine incorporation,"[1]; SK-LU-1, peptide at 1 or 100 nM",reduced
same,caspase-9 activity,caspase-9,no effect
same,plasma Ang-(1-7),[2]; 100 μg/kg/day,3209.5 pg/mL and 3.6 nM
same,plasma Ang-(1-7),[2],49.43 pg/mL and 0.055 nM
same,increase of plasma concentration over saline-infused animals,"[3]; 24 μg/kg/h intravenous infusion, Ki-ras^G12C mice",5 fold
same,plasma concentration of the heptapeptide,"[3]; 24 μg/kg/h intravenous infusion, Ki-ras^G12C mice, 84 days, n=8, saline 38.7±11.45",0.20132 ± 0.099 ng/mL
same,level at 2016 h,"[3]; Ki-ras^G12C, mouse, plasma, iv, 24 ug/kg/h, read-out: plasma concentration of the heptapeptide",0.201 ± 0.099 ng/mL
same,level at time molar at 1728 h,"[3]; mouse, plasma, 24 ug/kg/h, 24 μg/kg/h intravenous, 72 days of infusion into mice, n=8, from 0.043±0.013",0.224 ± 0.11 nM
same,"expression of MEK5, ERK1, p21/K-ras 2B",SK-LU-1 cells,reduced
same,"expression of p16^INK4a, menin, BAD, BAK, apoptotic protease activating factor 1",SK-LU-1 cells,upregulated
same,IC50 at the AT1 angiotensin receptor,"AT1 angiotensin receptor; Tallant et al., 1999",micromolar range
same,competition at the AT1 receptor,AT1 angiotensin receptor; literature,poor competitor
same,morphological changes (Hoechst 33342),[4],typical morphological changes associated with stimulation of apoptosis
same,cellular levels of cAMP,cellular levels of cAMP,131.9±9.7 % of basal
same,reduction in tumor volume compared to tumor size prior to treatment,[5],~40%
same,prostacyclin synthase,[6]; 1000 μg/kg/day,not altered
same,PGE2 in tumors,[6]; [7],reduced
same,PGI2 in tumors,[6]; [7],increased
same,tumor growth,"[6]; subcutaneous 1000 μg/kg/day, 5 days on/2 days rest, 7 cycles",significantly reduced
same,COX-2 in tumors,[6]; [8],marked down-regulation
same,down-regulation in VEGF mRNA in tumor tissue,[6]; [8],about 40%
same,reduction in prostaglandin E2 synthase (PGES) mRNA in tumors,[6]; [8],greater than 50%
